Data from PMC9078697, “Discovery and preliminary SAR of 14-aryloxy-andrographolide derivatives as antibacterial agents with immunosuppressant activity” (RSC Advances, 2018).
Like-named read-outs stand apart in the source and are kept apart here.

Assays:
E. coli = test: Bacteriostatic screening (growth, OD630) against E. coli; assay type: cell-based; conditions: for inhibition rate (%) EC / inhibition at 250 µM: at 250 μM of the tested compound; for IC50 / inhibition at 250 µM: Escherichia coli; for IC50: 24 h, IC50 generated when inhibition at 250 μM was higher than 80%; for inhibition at 250 µM: read-out: inhibition rate (%) EC
Protocol: (§1) The strategy in this study was to submit these synthesized compounds to a preliminary screening test against E. coli, S. aureus and E. faecalis (ciprofloxacin was used as a reference compound; see Table 1). […] The tested compound or ciprofloxacin (positive drug) was dissolved in DMSO and diluted with LB liquid medium into a stock solution containing 20% DMSO before use; the stock solution of the carrier was 20% DMSO in LB liquid medium. All the experiments, including blank controls, were performed in triplicate. Bacteriostatic screening was performed by applying a modified protocol of the National Committee on Clinical Laboratory Standards (NCCLS).[29] Briefly, E. coli, S. aureus and E. faecalis cells (American Type Culture Collection, ATCC) were grown in LB plate medium for one passage, then seeded in LB liquid medium and cultured at 37 °C for 12 h. After being diluted 1000 times, 190 μL diluted cells were aliquoted to 96-well plates; then, 10 μL stock solution of carrier or a gradient amount of the tested compound or the positive compound, ciprofloxacin, were added; the final concentration of DMSO was 1% in all wells. The blank controls contained 1% DMSO and LB medium but no bacterial cells.

AD-293 cells [1] = test: Cytotoxicity (MTT) in AD-293 cells; assay type: cell-based; conditions: treated for 24 h
[2] = system: TNF-α/NF-κB signaling pathway; test: TNF-α/NF-κB luciferase reporter assay in AD-293 cells; assay type: cell-based; conditions: AD-293 reporter cells, 50 ng mL−1 TNF-α, treated for 4 h
Excerpt: (§2) We utilized luciferase reporters bearing the promoter regions of TNF-α/NF-κB, TLR4/NF-κB, and IL-6/STAT3 ([ref. 25]) to examine the activities of the antibacterial active andrographolide analogs in the regulation of signaling pathways that govern inflammatory response (Table 2). […] Like their similarity in inhibitory activity against E. faecalis, E. coli and S. aureus (Table 1), 3-keto-19-alcohol compound 9b1 suppresses three signaling pathways in the same fashion as 6b17 (Table 2). […] Cells from the AD-293 cell line, a derivative of the HEK293 cell line with improved adherence and plaque formation properties, were purchased from Stratagene (La Jolla, CA, USA). The protocols were adopted and modified from our previous report.[25] All compounds were dissolved in DMSO at 10 mM as a stock solution. The final concentration of DMSO was 0.1% in the culture medium. AD-293 cells bearing luciferase reporters with promoter regions of IL-6/STAT3 and TNF-α/NF-κB in pGL4.20 vector (Promega) were maintained in DMEM high glucose medium supplemented with 10% FBS and 1% penicillin streptomycin in the presence of 1 μg mL^−1 puromycin. AD-293 cells overexpressing TLR4 and stably transfected with NF-κB reporter were maintained in DMEM high glucose medium in the presence of 1 μg mL^−1 puromycin and 10 μg mL^−1 blasticidin. All cells were maintained in a humidified incubator at 37 °C in 95% air and 5% CO2. Reporter cells were treated with 50 ng mL^−1 TNF-α to stimulate the NF-κB signaling pathway, 1 μg mL^−1 LPS to stimulate the TLR4/NF-κB signaling pathway, and 2.5 μg mL^−1 IL-6 to stimulate the IL-6/STAT3 signaling pathway. The medium was removed at the end of the treatment, cell extracts were prepared, and the luciferase activity was measured using a Luciferase assay kit (Promega) according to the manufacturer's instructions. EC50 was defined as the concentration of drug that inhibited stimulator-triggered luciferase reporter activation by 50% after continuous drug exposure for 4 (TNF-α/NF-κB) or 16 (IL-6/STAT3 and TLR4/NF-κB) hours. Each concentration was repeated 3 times independently.

[3] = system: TLR4/NF-κB signaling pathway; test: TLR4/NF-κB luciferase reporter assay in AD-293 cells; assay type: cell-based; conditions: AD-293 reporter cells, 1 μg mL−1 LPS, treated for 16 h
Excerpt: as §2

E. faecalis = test: Bacteriostatic screening (growth, OD630) against E. faecalis; assay type: cell-based; conditions: for IC50: 24 h, IC50 generated when inhibition at 250 μM was higher than 80%
Protocol: as §1

S. aureus = test: Bacteriostatic screening (growth, OD630) against S. aureus; assay type: cell-based; conditions: for inhibition rate (%) SA / inhibition at 250 µM: at 250 μM of the tested compound; for IC50 / inhibition at 250 µM: Staphylococcus aureus; for IC50: 24 h, IC50 generated when inhibition at 250 μM was higher than 80%; for inhibition at 250 µM: read-out: inhibition rate (%) SA
Protocol: as §1

[4] = system: IL-6/STAT3 signaling pathway; test: IL-6/STAT3 luciferase reporter assay in AD-293 cells; assay type: cell-based; conditions: AD-293 reporter cells, 2.5 μg mL−1 IL-6, treated for 16 h
Excerpt: as §2

AD-293 cells [5] = system: AD-293 cells; parameters: method as in PMID 28680097; conditions: treated for 24 h; cited from earlier work
[6] = system: TNF-α/NF-κB signaling pathway; parameters: method as in PMID 28680097; conditions: AD-293 reporter cells; treated for 4 h; cited from earlier work
[7] = system: TLR4/NF-κB signaling pathway; parameters: method as in PMID 28680097; conditions: AD-293 reporter cells; treated for 16 h; cited from earlier work
[8] = system: IL-6/STAT3 signaling pathway; parameters: method as in PMID 28680097; conditions: AD-293 reporter cells; treated for 16 h; cited from earlier work
[9] = Cytotoxicity (MTT) in AD-293 cells; assay type: cell-based; conditions: human, AD-293 cells (HEK293 derivative), treated for 24 h

Molecule | inhibition rate (%) EC (E. coli) | CC50 (AD-293 cells [1]) [µM] | EC50 [2] [µM] | EC50 [3] [µM] | IC50 (E. faecalis) [µM] | inhibition rate (%) SA (S. aureus) | EC50 [4] [µM] | CC50 at 24 h [9] [µM] | EC50 ([2]; Homo sapiens, AD293) [µM] | EC50 ([3]; Homo sapiens, AD293) [µM] | IC50 (E. faecalis; Enterococcus faecalis) [µM] | EC50 ([4]; Homo sapiens, AD293) [µM] | melting point [°C] | inhibition at 250 µM (E. coli) [%] | inhibition at 250 µM (S. aureus) [%] | further results
C=C1CCC2C3(C)COC(C)(C)OC3CCC2(C)C1CC=C1C(=O)OCC1Oc1cccc2cccnc12 (stereo not drawn) [5b17, (14β)-(Quinolyl-8′-oxy)-3,19-acetonylidene andrographolide] | (47) % | > 10 | 2.45 ± 0.49 | 2.85 ± 0.07 | 19.3 ± 2.3 | (27) % | 6.35 ± 0.77 |  |  |  |  |  |  |  |  | 
C=C1CCC2C(C)(CO)C(O)CCC2(C)C1CC=C1C(=O)OCC1Oc1cccc2cccnc12 (stereo not drawn) [6a17, (14α)-(Quinolyl-8′-oxy)andrographolide] | (70) % | > 10 | > 10 | > 10 | 16.3 ± 2.1 | (66) % | 5.62 ± 0.13 |  |  |  |  |  |  |  |  | 
C=C1CCC2C(C)(CO)C(O)CCC2(C)C1CC=C1C(=O)OCC1Oc1ccc([N+](=O)[O-])cc1OC (stereo not drawn) [6b3, (14β)-(2′-Methoxy-4′-nitro)phenoxy-andrographolide] |  |  |  |  | 140 ± 11.9 |  |  |  |  |  |  |  |  |  |  | CC50 (AD-293 cells [5]): > 10 µM; inhibition rate (%) SA (S. aureus; 250 µM): (44) %; EC50 [6]: 8.97 ± 1.03 µM; EC50 [7]: 3.49 ± 0.34 µM; EC50 [8]: > 10 µM
C=C1CC[C@@H]2[C@](C)(CO)[C@H](O)CC[C@@]2(C)[C@@H]1C/C=C1/C(=O)OC[C@@H]1Oc1cccc2cccnc12 [6b17, (14β)-(Quinolyl-8′-oxy)andrographolide] |  |  |  |  |  |  |  | > 10 | 2 ± 0.28 | 2.65 ± 0.07 | 6.3 ± 1.5 | 2.41 ± 0.31 | 134 to 136 |  |  | IC50 (E. coli): 21.6 ± 1.7 µM; times more active than 5b17 against E. faecalis (E. faecalis; versus 5b17): 3 times; IC50 (S. aureus): 37.5 ± 2.2 µM
C=C1CC[C@@H]2[C@](C)(COC(C)=O)[C@H](O)CC[C@@]2(C)[C@@H]1C/C=C1/C(=O)OC[C@@H]1Oc1cccc2cccnc12 [7b1, (14β)-(quinolyl-8′-oxy)-19-acetoxy andrographolide] |  |  |  |  |  |  |  | > 10 | 4.91 ± 0.02 | > 10 | 8.6 ± 0.7 | > 10 |  | 60 | 58 | 
C=C1CC[C@@H]2[C@](C)(CO[Si](C)(C)C(C)(C)C)[C@H](O)CC[C@@]2(C)[C@@H]1C/C=C1/C(=O)OC[C@@H]1Oc1cccc2cccnc12 [7b2, (14β)-(quinolyl-8′-oxy)-19-(t-butyldimethylsilyloxy)andrographolide] |  |  |  |  |  |  |  |  |  |  | 26.2 ± 2.8 |  | 149 to 151 | 24 | 23 | 
C=C1CC[C@H]2[C@@](C)(CCC(=O)[C@@]2(C)COC(C)=O)[C@@H]1C/C=C1/C(=O)OC[C@@H]1Oc1cccc2cccnc12 [8b1, (14β)-(quinolyl-8′-oxy)-3-keto-19-acetoxy andrographolide] |  |  |  |  |  |  |  | > 10 | > 10 | 4.84 ± 0.31 | 7.6 ± 0.8 | > 10 |  | 34 | 42 | 
C=C1CC[C@H]2[C@@](C)(CCC(=O)[C@@]2(C)CO)[C@@H]1C/C=C1/C(=O)OC[C@@H]1Oc1cccc2cccnc12 [9b, (14β)-(quinolyl-8′-oxy)-3-keto andrographolide] |  |  |  |  |  |  |  | > 10 | 2.03 ± 0.01 | 5.96 ± 0.03 | 9.1 ± 2.1 | 6.13 ± 0.39 | 141 to 143 |  |  | IC50 (E. coli): 27.9 ± 1.5 µM; IC50 (S. aureus): 27.6 ± 1.8 µM
C=C1CC[C@@H]2[C@](C)(CO)[C@H](O)CC[C@@]2(C)[C@@H]1C/C=C1/C(=O)OC[C@H]1O [compound 1, Andrographolide] |  |  |  |  |  |  |  | > 10 | > 10 | > 10 |  | > 10 |  |  |  | 
(14α)-(Quinolyl-8′-oxy)-3,19-acetonylidene andrographolide [5a17] | (44) % | > 10 | > 10 | > 10 | 10.4 ± 2.5 | (35) % | 4.71 ± 0.17 |  |  |  |  |  |  |  |  | 
